For the assay, the target named is T1, rhodopsin/opsin (Mus musculus, UniProt P15409).
T1 construct: from tissue; host or cells: whole eyes of wild-type C57BL/6 female mice
The assay is described as follows: Purified rhodopsin/opsin analysis after long-term treatment. The class given is in vivo. The method, then: Two weeks after the last gavage with either, 9-cis-R-Ac, all-trans-R-Ac or vehicle, groups of 48 hr dark-adapted mice were analyzed for recovery of dark adaptation after light exposure, purified rhodopsin/opsin and retinoids in the eye and retinal morphology (FIG. 1C; Methods). Mice were exposed to light of intensity 500 cd·m^−2 that bleached ˜90% of rhodopsin, anesthetized and monitored by ERG for one hr to evaluate recovery of dark adaptation. Rhodopsin was purified and rhodopsin/opsin ratios was determined. Retinoid analyses were performed on dissected eyes removed at 0, 10, 30, and 60 min after exposure to the same amount of light. Mice used to evaluate retinal morphology were not exposed to photobleaching prior to analysis.
Rhodopsin purification was done under dim red light as previously described (Zhu, L., et al. J Biot Chem, 279, 53828-53839 (2004)). Purified anti-rhodopsin C terminus antibody 1D4 (MacKenzie, D., Arendt, A., Hargrave, P., McDowell, J. H. & Molday, R. S. Biochemistry, 23, 6544-6549 (1984)) was immobilized on CNBr-activated Sepharose 4B and a 4.6×12-mm column was packed with 2 mg of 1 D4 antibody/ml of Sepharose beads. Mouse whole eyes were homogenized in 137 mM NaCl, 5.4 mM Na2HPO4, 2.7 mM KCl and 1.8 mM KH2PO4 (pH 7.5) with a glass-to-glass homogenizer. Soluble proteins in the supernatant were removed by centrifugation at 14,000×g for 5 min and the pellet was solubilized in buffer containing 1% dodecyl-β-maltoside in 10 mM Bis-Tris propane (pH 7.5) containing 500 mM NaCl. The supernatant was cleared by centrifugation at 125,000×g for 20 min and loaded onto an antibody 1 D4-packed immunoaffinity column which was then thoroughly washed at a flow rate of 0.5 ml/min with 10 mM Bis-Tris propane (pH 7.5) containing 500 mM NaCl and 0.1% dodecyl-β-maltoside. […] Purified rhodopsin concentration was determined at 500 nm and total amount of opsin and rhodopsin at 280 nm with a Hewlett-Packard 8452A UV-visible spectrophotometer (Palczewski, K., Carruth, M. E., Adamus, G., McDowell, J. H. & Hargrave, P. A. Vision Research, 30, 1129-1137 (1990)).

T1 sequence (P15409 whole entry): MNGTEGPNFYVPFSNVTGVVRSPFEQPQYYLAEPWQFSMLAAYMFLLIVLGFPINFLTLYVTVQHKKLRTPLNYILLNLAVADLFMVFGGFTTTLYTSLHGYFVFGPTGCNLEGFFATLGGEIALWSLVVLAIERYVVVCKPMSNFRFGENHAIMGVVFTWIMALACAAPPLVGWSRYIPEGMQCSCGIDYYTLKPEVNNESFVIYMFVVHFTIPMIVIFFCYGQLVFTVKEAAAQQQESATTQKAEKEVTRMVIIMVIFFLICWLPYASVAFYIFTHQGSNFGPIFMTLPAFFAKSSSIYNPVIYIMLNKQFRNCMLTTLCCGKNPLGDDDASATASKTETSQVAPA

Turning to `CC(=O)OC/C=C(C)/C=C/C=C(C)\C=C\C1=C(C)CCCC1(C)C` [9-cis-R-Ac, 9-cis-retinyl acetate], the “amounts of purified protein recovered” value is, setting by setting: (10-month-old treated mice, N1 versus C1) “only slightly attenuated”; (14 months of age, N2 and N3 vs C2) “significantly lower”. The “regeneration ratios (rhodopsin/opsin) and total amounts of purified rhodopsin” value (long-term treatment, 10 and 14 months of age, control vs treated) was “no significant differences”.

The values are drawn from patent US9855239B2, “Methods for the treatment and prevention of age-related retinal dysfunction” (University of Washington, priority 2008, dated 2018).
